Measured values published in patent publication US20150315211A1, “SMALL MOLECULES FOR THE MODULATION OF MCL-1 AND METHODS OF MODULATING CELL DEATH, CELL DIVISION, CELL DIFFERENTIATION AND METHODS OF TREATING DISORDERS” (priority 2010, published 2015).

Key:
MCL-1ΔNΔC [1] = assay: High-throughput competitive FP binding screen, FITC-MCL-1 SAHB/MCL-1ΔNΔC interaction; conditions: selectivity for MCL-1ΔNΔC over BCL-XLΔC targeting (BCL-XL % Bound minus MCL-1 % Bound)
BCL-XLΔC = BCL-XLΔC (Homo sapiens, UniProt Q07817); assay: High-throughput competitive FP binding screen, FITC-BAD BH3/BCL-XLΔC interaction; conditions: FITC-BAD BH3/BCL-XLΔC interaction pair, competitive FP screen
BCL-XLΔC, sequence (Q07817 1-212 limits assumed, stated change not applied): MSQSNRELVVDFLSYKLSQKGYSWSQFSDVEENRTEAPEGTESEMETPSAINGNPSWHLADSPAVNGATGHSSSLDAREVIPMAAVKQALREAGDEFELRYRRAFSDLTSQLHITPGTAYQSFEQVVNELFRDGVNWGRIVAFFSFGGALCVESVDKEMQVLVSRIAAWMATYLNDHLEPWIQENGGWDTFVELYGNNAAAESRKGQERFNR

MCL-1ΔNΔC [2] = target: MCL-1ΔNΔC (Homo sapiens, UniProt Q07820); assay: High-throughput competitive FP binding screen, FITC-MCL-1 SAHB/MCL-1ΔNΔC interaction; design: the C-terminal alpha-helix was deleted from each of these constructs; GST (N, cleaved yes); made in house; conditions: FITC-MCL-1 SAHB/MCL-1ΔNΔC interaction pair, competitive FP screen
MCL-1ΔNΔC (Homo sapiens, UniProt Q07820), sequence (Q07820 172-320 limits assumed, stated change not applied): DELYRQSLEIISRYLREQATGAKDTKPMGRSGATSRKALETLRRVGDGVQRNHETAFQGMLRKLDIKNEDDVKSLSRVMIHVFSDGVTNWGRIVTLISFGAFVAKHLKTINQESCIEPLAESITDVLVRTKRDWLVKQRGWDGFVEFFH

SMILES | Spec Values (MCL-1ΔNΔC [1]) | BCL-XL % Bound (BCL-XLΔC) | MCL-1% Bound (MCL-1ΔNΔC [2])
CCN(CC)c1cc(C)c2cc(NC(=O)/C=C/c3ccco3)ccc2n1 | 68.15 | 79.88% | 11.73%
N#CC1=C(S)NC(=O)C(C#N)C12CCCCC2 (stereo not drawn) | 67.9 | 107.0% | 39.1%
CCOC(=O)C(C)Oc1cccc2c(=O)n(CC(=O)Nc3ccc4c(c3)CCCO4)ccc12 (stereo not drawn) | 67.48 | 102% | 34.53%
COc1cc2c(O)c3c(c(-c4ccc5c(c4)OCO5)c2cc1OC)C(=O)OC3 | 66.63 | 104.6% | 37.92%
O=C(ON1C(=O)CCC1=O)c1ccc(Cl)cc1Cl | 66.25 | 96.73% | 30.48%
Cn1cc2c(n1)-c1cc(Cl)ccc1SC2 | 66.16 | 89.61% | 23.45%
CCOC(=O)c1cc(CC)sc1NC(=O)C=C(C)C | 66 | 90.12% | 24.13%
COc1ccc(C(Nc2cc(C)ccn2)c2ccc3cccnc3c2O)cc1O (stereo not drawn) | 65.85 | 93.02% | 27.17%
c1cc2nsnc2c2c1Nc1nc3nonc3nc1N2 | 65.78 | 57.68% | −8.097%
Cc1ncc(CO)c2c1Oc1nc(-c3ccccc3)[nH]c(=S)c1C2 | 65.07 | 131.2% | 66.14%
CCCCc1c(C)sc(NC(=S)Nn2cnnc2)c1C(=O)OCC | 64.95 | 69.53% | 4.578%
CC1CCc2c(sc3[nH]c(=S)sc(=N)c23)C1 (stereo not drawn) | 64.71 | 83.66% | 18.95%
O=C1C=Cc2ccc3c4c(ccc1c24)C=CC3=O | 64.7 | 91.4% | 26.7%
CC1=C/C(=N\Nc2ccccc2Cl)CC1 | 64.61 | 99.01% | 34.4%
O=C(O)c1cccc(-c2ccc(CC3Sc4ccccc4C3=O)o2)c1 (stereo not drawn) | 64.25 | 95.42% | 31.17%
O=C(O)C1Nc2c(I)cccc2C2C=CCC12 (stereo not drawn) | 64.16 | 100.3% | 36.12%
Cc1ccc(CCNC(=O)c2ccc3nc(-c4ccco4)c(-c4ccco4)nc3c2)cc1 | 64.01 | 99.74% | 35.73%
Clc1cccc2c(N3CCCCCC3)cnnc12 | 63.59 | 85.37% | 21.78%
Cc1ccc(C)c2[nH]c(=O)c(C(c3nnnn3C3CCCC3)N3CCCC3)cc12 (stereo not drawn) | 63.57 | 103.3% | 39.75%
CS(=O)(=O)CS(=O)(=O)NNc1ncc(C(F)(F)F)cc1Cl | 63.45 | 104.7% | 41.29%
CN1C(=O)C2(NN=C(c3ccccc3)S2)c2cc(Br)ccc21 (stereo not drawn) | 63.14 | 81.72% | 18.57%
O=C(NN=C1CCCC1)c1ccccc1NS(=O)(=O)c1cccs1 | 63.07 | 92.34% | 29.27%
Cc1nc2c(C(=O)NCc3ccccc3Cl)cnn2c(O)c1Cl | 63.02 | 94.42% | 31.4%
O=C(c1ccc(O)cc1)N1CCN(c2cccc(Cl)c2)CC1 | 62.99 | 90.71% | 27.72%
